Maximal response data for 70 compounds are collected here from the supplement of paper PMC3493320.

The structures appear in SMILES notation. Several values for one entry are separate records, joined by “and”; a condition that tells them apart may be missing. Identical values can stand only once.

This test deals with NCI-H295R. Kind of test: maximal response (efficacy) relative to DMSO (0%) and doxorubicin (-100%); higher = less growth inhibition. The note with it: 48 h.
For the compound `CC(=O)O[C@H]\1CC[C@H]4C(=C/1)/CC[C@@H]2[C@@H]4CC[C@]3(C)[C@@](CC[C@@H]23)(C#C)OC(C)=O`, the maximal response was -26.3%.

Turning to `CC1(C)C3=C(C=CC=C3)/C(C2=C1C=CC=C2)=C/CCN(C)C.Cl`, the maximal response is -21.5%. The result for `CC(=O)Oc1ccc2c(c1)CC[C@@H]1[C@@H]2CC[C@]2(C)[C@@H](O)CC[C@@H]12` reads -30.8%.

Regarding `O=C(Nc1ccc(Cl)cc1)Nc1ccc(Cl)c(Cl)c1`, the maximal response is -41.7%. The result for `CCCSc1ccc2[nH]c(NC(=O)OC)nc2c1` reads -55.1%. The result for `O=c1[nH]c2ccccc2n1CCCN1CCC(n2c(=O)[nH]c3cc(Cl)ccc32)CC1` reads -25.4%; that for `CCc1cc(Cl)c(OC)c(C(=O)NC[C@@H]2CCCN2CC)c1O.Cl`, -24.8%.

Take `COC(=O)c1ccccc1C(=O)c1ccc(OCCN2CCCCC2)cc1.Cl`: the maximal response is -26.8%. The same measure for `CC[C@@]1(O)C(=O)OCc2c1cc1n(c2=O)Cc2cc3c(CN(C)C)c(O)ccc3nc2-1.Cl`: -36.8%; for `N[C@H](C(=O)O)[C@@H]1CC(Cl)=NO1`: -39.1%; for `Cl.Cl.OCCN1CCN(CCCN2c3ccccc3C=Cc3ccccc32)CC1`: -69.8%.

For the compound `C/C(=C\c1csc(C)n1)[C@@H]1C[C@@H]2O[C@]2(C)CCC[C@H](C)[C@H](O)[C@@H](C)C(=O)C(C)(C)[C@@H](O)CC(=O)O1`, the maximal response was -57.6%. The same measure for `Oc1ccc(O)cc1`: -31.2%; for `CCc1cccc(N(C)C(=N)Nc2cccc3ccccc23)c1.Cl`: -29.2%. The result for `COc1cc(/C=C/C(=O)O[C@H]2CC[C@]34C[C@]35CC[C@]3(C)[C@@H]([C@H](C)CCC=C(C)C)CC[C@@]3(C)[C@@H]5CC[C@H]4C2(C)C)ccc1O` reads -40.3%. Turning to `O=[C@@](OC)[C@](C(N3)=C4C2=C3C=CC=C2)([C@@]5=CC([C@]69[C@]8([H])[C@](C=CCN8CC9)(CC)[C@@H](OC(C)=O)[C@](O)([C@](OC)=O)[C@@]([H])6N7C=O)=C7C=C5OC)C[C@H]1C[C@](CC)(O)CN(CC4)C1`, the maximal response was -44.6%.

Turning to `CCC(O)c1ccccc1` (stereo not given), the maximal response is -25.2%. The same measure for `CCCCOc1ccc(CC(=O)NO)cc1`: -24%; for `Cc1cc2nc3c(=O)[nH]c(=O)nc-3n(C[C@H](O)[C@H](O)[C@H](O)COP(=O)([O-])OP(=O)([O-])OC[C@H]3O[C@@H](n4cnc5c(N)ncnc54)[C@H](O)[C@@H]3O)c2cc1C.[Na+].[Na+]`: 22%; for `CC(C)OC(=O)Nc1ccc2[nH]c(-c3cscn3)nc2c1`: -56.3%. Regarding `Nc1ccc(O)c(C(=O)O)c1`, the maximal response is -20.8%. The result for `COc1cc2c(cc1OC)C(C(C(=O)N(CCc1ccc(OC)c(OC)c1OC)CCc1ccc(OC)c(OC)c1OC)c1ccccc1)=NCC2.Cl` (stereo not given) reads -28.4%; that for `O=S(=O)([O-])c1ccc2c(/N=N/c3ccc(S(=O)(=O)[O-])c4ccccc34)c(O)c(S(=O)(=O)[O-])cc2c1.[Na+].[Na+].[Na+]`, -50.2%; that for `CCOc1ccc(Cc2nccc3cc(OCC)c(OCC)cc23)cc1OCC.Cl`, -39.5%. As for `O=C(N[C@@H](c1ccccc1)[C@@H](O)C(=O)O[C@H]3C[C@@]4(O)[C@@H](OC(=O)c2ccccc2)[C@@H]5[C@]6(OC(C)=O)CO[C@@H]6C[C@H](O)[C@@]5(C)C(=O)[C@H](OC(C)=O)\C(=C3/C)C4(C)C)c7ccccc7`, the maximal response was -55.9%. The same measure for `CNCC/C=C2/C1=C(CCC3=C2C=CC=C3)C=CC=C1.Cl`: -38.9%.

As to `COc1cc(C)c(Cc2cnc(N)nc2N)cc1OC`, the maximal response is -57.4%. The result for `N\1(C(N(C(CC)C)/N=C/1)=O)c7ccc(N2CCN(CC2)c6ccc(OC[C@@H]5O[C@](c3c(cc(cc3)Cl)Cl)(Cn4ncnc4)OC5)cc6)cc7` (stereo not given in full) reads -23.1%; that for `O=C(N/N=C/c1ccccc1O)c1ccncc1`, -33.1%. As for `COC(CNC(=O)c1ccccc1OCC(=O)O)[CH2][Hg][OH]` (stereo not given), the maximal response turned out to be 29%. Consider `CCOC(=O)[C@@H](CCc1ccccc1)N[C@@H]1CCc2ccccc2N(CC(=O)O)C1=O.Cl`, for which the maximal response was -30.1%. The result for `C[C@@H]1CCC2[C@@H](C)[C@@H](O)O[C@@H]3O[C@@]4(C)CC[C@@H]1[C@@]23OO4` (stereo not given in full) reads -56.4%; that for `O=C1c2ccccc2C(=O)C1c1ccccc1`, -24.9%; that for `O=C(O)Cc1cc(I)c(Oc2ccc(O)c(I)c2)c(I)c1`, -31.4%. The result for `CN(C)CCCN1c2ccccc2CCc2ccccc21` reads -21%; that for `O=C1C(O)=C([C@H]2CC[C@H](c3ccc(Cl)cc3)CC2)C(=O)c2ccccc21`, -51%. The result for `O=C(CCCCCCC(=O)Nc1ccccc1)NO` reads -37.1%. As to `CCN(CC)C(=S)SSC(=S)N(CC)CC`, the maximal response was -27.3%.

With `COc1cc(C=C2CCCC(=Cc3ccc(O)c(OC)c3)C2=O)ccc1O`, the maximal response was -130%. The same measure for `Nc1nc(Cl)nc2c1ncn2[C@@H]1O[C@H](CO)[C@@H](O)[C@@H]1F`: -29.5%; for `O=C2N(CCC8)[C@]8([H])[C@@](O[C@](C)1N[C@]([C@@H]6C=C([C@]7([H])N(C)C6)C5=C4C(C7)=CNC4=CC=C5)=O)(O)N([C@H]2CC3=CC=CC=C3)C1=O.O=C%10N(CCC%16)[C@]%16([H])[C@@](O[C@](C)9N[C@]([C@@H]%14C=C([C@]%15([H])N(C)C%14)C%13=C%12C(C%15)=CNC%12=CC=C%13)=O)(O)N([C@H]%10CC%11=CC=CC=C%11)C9=O.O[C@@H](C(O)=O)[C@@H](O)C([O-])=O`: -31.1%; for `O=C([O-])C1=C(CSc2nnnn2CS(=O)(=O)[O-])CS[C@@H]2[C@H](NC(=O)[C@H](O)c3ccccc3)C(=O)N12.[Na+].[Na+]`: 25.5%. The result for `[O-][n+]1ccccc1SSc1cccc[n+]1[O-]` reads -23.5%; that for `COC(=O)C1=C(C#N)NC(C)=C(C(=O)OC(C)C)C1c1cccc([N+](=O)[O-])c1` (stereo not given), -23.9%; that for `CCCCc1ccc2[nH]c(NC(=O)OC)nc2c1`, -49.6%. The same measure for `NC(=O)N/N=C/c1ccc([N+](=O)[O-])o1`: -20.7%; for `COC(=O)Nc1nc2cc(C(=O)c3ccccc3)ccc2[nH]1`: -50.2%. For the compound `O[C@@]1(CC)C[C@H](C2)C[C@@]([C@]7=C(OC)C=C6N(C)[C@]5([H])[C@@](C6=C7)(CC9)[C@](N9CC=C8)([H])[C@]8(CC)[C@@H](OC(C)=O)[C@@](O)5[C@@](OC)=O)([C@](OC)=O)C(NC4=CC=CC=C34)=C3CCN2C1.O=S(O)(O)=O`, the maximal response is -54.7% and -52.9%. The result for `Nc1ncnc2[nH]cnc12` reads 30.9%; that for `CN1CCC(CN2c3ccccc3Sc3ccccc32)C1.Cl` (stereo not given), -26.6%; that for `O=C3C1=C(NC(N)=N3)NC=C1CCC2=CC=C(C(N[C@H]([C@@]([O-])=O)CCC([O-])=O)=O)C=C2.[Na+].[Na+]`, -56.4%. With `CN[C@H]1CCc2cc(OC)c(OC)c(OC)c2-c2ccc(OC)c(=O)cc21`, the maximal response is -53.1%. The result for `O=C1c2cccc(O)c2C(=O)c2c(O)cccc21` reads -35.8%; that for `CC(CN(C)C)CN1c2ccccc2Sc2ccc(C(F)(F)F)cc21.O=C(O)C=CC(=O)O` (stereo not given), -30.2%. For `CC(C)(COP(=O)([O-])OP(=O)([O-])OC[C@H]1O[C@@H](n2cnc3c(N)ncnc32)[C@H](O)[C@@H]1OP(=O)([O-])O)C(O)C(=O)NCCC(=O)NCCS.O.O.[Li+].[Li+].[Li+]` (stereo not given in full), the maximal response was 33%. The same measure for `COc1cc([C@@H]2c3cc4c(cc3[C@H](O)[C@H]3COC(=O)[C@H]23)OCO4)cc(OC)c1OC`: -50.8%; for `CC(C)c1c(C(=O)Nc2ccccc2)c(-c2ccccc2)c(-c2ccc(F)cc2)n1CC[C@@H](O)C[C@@H](O)CC(=O)[O-].CC(C)c1c(C(=O)Nc2ccccc2)c(-c2ccccc2)c(-c2ccc(F)cc2)n1CC[C@@H](O)C[C@@H](O)CC(=O)[O-].[Ca+2]`: -29.1%; for `S=C1SCN(Cc2ccccc2)CN1Cc1ccccc1`: -29.7%. Consider `O=C(N)[C@@](C2=CC=CC=C2)([C@H]3CN(CCC4=CC(CCO5)=C5C=C4)CC3)C1=CC=CC=C1.Br`, for which the maximal response was -31.7%. The result for `Cl.Cl/C(=C\n1cncn1)c1ccc(Cl)cc1Cl` reads -28.8%; that for `Cl.Cl.O=C1c2c(O)ccc(O)c2C(=O)c2c(NCCNCCO)ccc(NCCNCCO)c21`, -59.3%; that for `O=C(Nc1ncc([N+](=O)[O-])s1)c1cccs1`, -58.5%. For the compound `O=[C@@](OC)[C@](C(N3)=C(C4)C2=C3C=CC=C2)([C@@]5=CC([C@]69[C@]8([H])[C@](C=CCN8CC9)(CC)[C@@H](OC(C)=O)[C@](O)([C@](OC)=O)[C@@]([H])6N7C)=C7C=C5OC)C[C@]1([H])C=C(CC)CN4C1.O=C(O)C(O)C(O)C(O)=O.O=C(O)C(O)C(O)C(O)=O`, the maximal response was -56.6%. The same measure for `CCCc1nc2c(C)cc(-c3nc4ccccc4n3C)cc2n1Cc1ccc(-c2ccccc2C(=O)O)cc1`: -22.7%; for `CCC(CC)(CC(=O)Nc1cccc(/C=C/c2nc(C3CCC3)cs2)c1)C(=O)O`: -34.3%. As to `CN1C(=O)C(O)N=C(c2ccccc2)c2cc(Cl)ccc21` (stereo not given), the maximal response is -27.8%. In the case of `O=[N+]([O-])c1cc(I)c(O)c(I)c1`, the maximal response was -32.6%. The result for `COc1cccc(N(C)C(=S)Oc2ccc3c(c2)CCCC3)n1` reads -47.1%; that for `O=C(O)c1cc(O)c2c(c1)[C@H]([C@H]1c3cc(C(=O)O)cc(O)c3C(=O)c3c(O[C@@H]4O[C@H](CO)[C@@H](O)[C@H](O)[C@H]4O)cccc31)c1cccc(O[C@@H]3O[C@H](CO)[C@@H](O)[C@H](O)[C@H]3O)c1C2=O`, -34.5%; that for `CC1=CC(=O)[N-]S(=O)(=O)O1.[K+]`, -79.3%.
